Measured values from PMC9959244, “Revisiting the Solubility–Permeability Relationship with Hydrophobic Drug Umifenovir in Pluronic Solutions: Impact of pH and Co-Solvent” (Pharmaceutics, 2023).
Values after ≈ are worked out from the molar mass of the structure shown. Read-outs that look alike come from different tables or passages of the source.

Columns and labels:
[1] = Phase solubility, shake-flask method with UV spectrophotometry; format: physicochemical; conditions: for solubility at 3 days: aqueous buffer (shake-flask)
Description: The solubility of UMF was measured in pure buffers pH 2.0 and pH 7.4, with the additions of 1.5 w/v%, 4.0 w/v%, 5.5 w/v%, 7.0 w/v% of F-127, and in all these solutions in the presence of 10% and 20% ethanol at 310.15 ± 0.1 K by the standard shake-flask method. The concentrations of F-127 were chosen purposely to avoid the formation of a gel (at approximately 20% w/w in water at 310.15 K). Since the aim of the study was to evaluate the possibility of preparation of pharmaceutical products based on UMF, the experimental temperature was selected to be as very close to the normal temperature of a healthy human. […] The experimental results are presented as an average of at least three replicated experiments.

[2] = In vitro permeability, Franz diffusion cell; format: in vitro ADME
Description: The permeability coefficients of UMF were measured in a Franz diffusion cell of a vertical type (PermeGear, Inc., Hellertown, PA, USA) at 310.15 ± 0.1 K. The experimental setup is fully described and illustrated in our previous study. All the experiments were carried out with the help of a regenerated cellulose membrane with a molecular weight cut-off (MWCO) of 12–14 kDa (Standard Grade RC Dialysis Membrane, Flat Width 45 mm) pretreated with water for 30 min and dried under air. A cellulose membrane MWCO 6–8 kDa was additionally used for several experiments. The membrane effective surface area was 0.785 cm^2. It was placed between the donor (7 mL of the stock UMF solution) and acceptor (pure solvent without UMF—blank solution) chambers. In the case of the pH 2.0 donor solution, the blank solution at pH 7.4 was applied in the acceptor chamber in order to simulate the compound transfer to the blood plasma. Samples of 0.5 mL were withdrawn every 30 min from the acceptor chamber and replaced with an equal amount of pure buffer pH 7.4. The solutions were analyzed using a plate-type spectrophotometer (Spectramax 190; Molecular devices, Molecular Devices Corporation, California, USA) and a 96-well UV black plate (Costar). The plot of the cumulative amount of the compound (Q) permeated through the membrane of effective surface area (A) versus time (t) was constructed and the apparent permeability coefficient (Papp) was calculated by the equation:Papp = J/C0(1) where J is the flux through the membrane derived as a slope of the permeation plot (J = dQ/(A·dt)), and C0 is the UMF concentration in the donor solution. Papp values were taken as an average of at least 3 or more experiments.

[3] = PXRD analysis of solid residuals after solubility experiments; format: physicochemical
Description: The powder XRD data were recorded under ambient conditions on a D2 Phaser (Bragg Brentano) diffractometer (Bruker AXS, Karlsruhe, Germany) with a copper X-ray source (λCuKα1 = 1.5406Å) and a high-resolution position-sensitive LYNXEYE XE-T detector. The samples were placed into the plate sample holders and rotated at a speed of 15 rpm during the data acquisition.
In order to trace possible transformations of the UMF base, the solid residuals left after each solubility experiment were isolated, dried under air and subjected to PXRD analysis together with the raw UMF base and UMF∙HCl∙H2O. […] Importantly, all the parameters obtained for the acidic solutions (solubility, permeability, micellization, and aggregation characteristics) refer to UMF∙HCl∙H2O, in spite of the fact that initially the UMF base was subjected to the experiments.

With `CCOC(=O)c1c(CSc2ccccc2)n(C)c2cc(Br)c(O)c(CN(C)C)c12` [UMF, 6-bromo-4-dimethylaminomethyl-5-hydroxy-1-methyl-2-phenylthiomethyl indole-3-carboxylic acid ethyl ester] the “Solubility increase by ethanol vs buffer pH 7.4” value ([1]; 10% EtOH) was 1.13 fold, the “Solubility increase by ethanol vs buffer pH 7.4” value ([1]; 20% EtOH) was 1.8 fold and the “Greater solubility in acidic medium (pH 2.0) as compared to alkaline one (pH 7.4)” value ([1]; 310.15 K) was 44.4 fold. The solubility at 3 days ([1]; 37 °C, pH 2, aqueous buffer, thermodynamic from solid, Solubility SUMF·103, buffer pH 2.0, 0 w/v% F-127, 310.15 K, value is S×10^3, heading: Solubility SUMF·103) was 710 ± 20 µM (≈ 339 µg/mL), the solubility at 3 days ([1]; 37 °C, pH 2, aqueous buffer, thermodynamic from solid, pH 2.0, 310.15 K, read-out: Solubility in pure buffer) was 711 µM (≈ 339 µg/mL) and the solubility at 3 days ([1]; 37 °C, pH 2, aqueous with cosolvent or surfactant or cyclodextrin, thermodynamic from solid, Solubility SUMF·103, buffer pH 2.0, 1.5 w/v% F-127, 310.15 K, value is S×10^3, heading: Solubility SUMF·103) was 2050 ± 40 µM (≈ 979 µg/mL). The solubility at 3 days ([1]; 37 °C, pH 2, aqueous with cosolvent or surfactant or cyclodextrin, thermodynamic from solid, Solubility SUMF·103, buffer pH 2.0, 4.0 w/v% F-127, 310.15 K, value is S×10^3, heading: Solubility SUMF·103) was 3990 ± 80 µM (≈ 1900 µg/mL), the solubility at 3 days ([1]; 37 °C, pH 2, aqueous with cosolvent or surfactant or cyclodextrin, thermodynamic from solid, Solubility SUMF·103, buffer pH 2.0, 5.5 w/v% F-127, 310.15 K, value is S×10^3, heading: Solubility SUMF·103) was 5610 ± 40 µM (≈ 2680 µg/mL) and the solubility at 3 days ([1]; 37 °C, pH 2, aqueous with cosolvent or surfactant or cyclodextrin, thermodynamic from solid, Solubility SUMF·103, buffer pH 2.0, 7.0 w/v% F-127, 310.15 K, value is S×10^3, heading: Solubility SUMF·103) was 6340 ± 30 µM (≈ 3030 µg/mL). For the same compound, the solubility at 3 days ([1]; 37 °C, pH 7.4, aqueous buffer, thermodynamic from solid, buffer pH 7.4, 0 w/v% F-127, 310.15 K, value is S×10^4, read-out: Solubility SUMF·104) was 16 ± 0.1 µM (≈ 7.64 µg/mL), the solubility at 3 days ([1]; 37 °C, pH 7.4, aqueous with cosolvent or surfactant or cyclodextrin, thermodynamic from solid, 7.0% F-127 + 20% EtOH, buffer pH 7.4, 310.15 K, read-out: Maximum solubility value) was 1180 µM and the solubility at 3 days ([1]; 37 °C, pH 7.4, aqueous with cosolvent or surfactant or cyclodextrin, thermodynamic from solid, buffer pH 7.4 +10% EtOH, 0 w/v% F-127, 310.15 K, value is S×10^4, read-out: Solubility SUMF·104) was 18 ± 0.1 µM (≈ 8.59 µg/mL). The solubility at 3 days ([1]; 37 °C, pH 7.4, aqueous with cosolvent or surfactant or cyclodextrin, thermodynamic from solid, buffer pH 7.4 +10% EtOH, 1.5 w/v% F-127, 310.15 K, value is S×10^4, read-out: Solubility SUMF·104) was 194 ± 1 µM (≈ 92.6 µg/mL), the solubility at 3 days ([1]; 37 °C, pH 7.4, aqueous with cosolvent or surfactant or cyclodextrin, thermodynamic from solid, buffer pH 7.4 +10% EtOH, 4.0 w/v% F-127, 310.15 K, value is S×10^4, read-out: Solubility SUMF·104) was 477 ± 3 µM (≈ 228 µg/mL) and the solubility at 3 days ([1]; 37 °C, pH 7.4, aqueous with cosolvent or surfactant or cyclodextrin, thermodynamic from solid, buffer pH 7.4 +10% EtOH, 5.5 w/v% F-127, 310.15 K, value is S×10^4, read-out: Solubility SUMF·104) was 689 ± 7 µM (≈ 329 µg/mL). The solubility at 3 days ([1]; 37 °C, pH 7.4, aqueous with cosolvent or surfactant or cyclodextrin, thermodynamic from solid, buffer pH 7.4 +10% EtOH, 7.0 w/v% F-127, 310.15 K, value is S×10^4, read-out: Solubility SUMF·104) was 806 ± 7 µM (≈ 385 µg/mL), the solubility at 3 days ([1]; 37 °C, pH 7.4, aqueous with cosolvent or surfactant or cyclodextrin, thermodynamic from solid, buffer pH 7.4 +20% EtOH, 0 w/v% F-127, 310.15 K, value is S×10^4, read-out: Solubility SUMF·104) was 30 ± 1 µM (≈ 14.3 µg/mL) and the solubility at 3 days ([1]; 37 °C, pH 7.4, aqueous with cosolvent or surfactant or cyclodextrin, thermodynamic from solid, buffer pH 7.4 +20% EtOH, 1.5 w/v% F-127, 310.15 K, value is S×10^4, read-out: Solubility SUMF·104) was 276 ± 3 µM (≈ 132 µg/mL). The solubility at 3 days ([1]; 37 °C, pH 7.4, aqueous with cosolvent or surfactant or cyclodextrin, thermodynamic from solid, buffer pH 7.4 +20% EtOH, 4.0 w/v% F-127, 310.15 K, value is S×10^4, read-out: Solubility SUMF·104) was 700 ± 5 µM (≈ 334 µg/mL), the solubility at 3 days ([1]; 37 °C, pH 7.4, aqueous with cosolvent or surfactant or cyclodextrin, thermodynamic from solid, buffer pH 7.4 +20% EtOH, 5.5 w/v% F-127, 310.15 K, value is S×10^4, read-out: Solubility SUMF·104) was 983 ± 11 µM (≈ 469 µg/mL) and the solubility at 3 days ([1]; 37 °C, pH 7.4, aqueous with cosolvent or surfactant or cyclodextrin, thermodynamic from solid, buffer pH 7.4, 1.5 w/v% F-127, 310.15 K, value is S×10^4, read-out: Solubility SUMF·104) was 174 ± 3 µM (≈ 83.1 µg/mL). For the same compound, the solubility at 3 days ([1]; 37 °C, pH 7.4, aqueous with cosolvent or surfactant or cyclodextrin, thermodynamic from solid, buffer pH 7.4, 4.0 w/v% F-127, 310.15 K, value is S×10^4, read-out: Solubility SUMF·104) was 393 ± 3 µM (≈ 188 µg/mL), the solubility at 3 days ([1]; 37 °C, pH 7.4, aqueous with cosolvent or surfactant or cyclodextrin, thermodynamic from solid, buffer pH 7.4, 5.5 w/v% F-127, 310.15 K, value is S×10^4, read-out: Solubility SUMF·104) was 586 ± 2 µM (≈ 280 µg/mL) and the solubility at 3 days ([1]; 37 °C, pH 7.4, aqueous with cosolvent or surfactant or cyclodextrin, thermodynamic from solid, buffer pH 7.4, 7.0 w/v% F-127, 310.15 K, value is S×10^4, read-out: Solubility SUMF·104) was 696 ± 4 µM (≈ 332 µg/mL). For the same compound, the solubility at 3 days ([1]; pH 7.4, pH 7.4, 310.15 K, read-out: Solubility in pure buffer) was 15.8 µM (≈ 7.54 µg/mL), the “Solubility enhancement by 7.0% F-127” value ([1]; buffer pH 2.0, vs without F-127) was 8.9 fold and the “Solubility enhancement by 7.0% F-127” value ([1]; buffer pH 7.4 + 10% EtOH, vs without F-127) was 44.8 fold. For the same compound, the “Solubility enhancement by 7.0% F-127” value ([1]; buffer pH 7.4 + 20% EtOH, vs without F-127) was 39.3 fold, the “Solubility enhancement by 7.0% F-127” value ([1]; buffer pH 7.4, vs without F-127) was 43.5 fold and the “Permeability coefficient in pure buffer pH 7.4 greater than in pH 2.0” value [2] was 2.1 fold. For the same compound, the “Permeability increase by EtOH in buffer pH 7.4” value ([2]; 10% EtOH) was 1.4 fold, the “Permeability increase by EtOH in buffer pH 7.4” value ([2]; 20% EtOH) was 1.2 fold and the “Permeability reduction by 4.0% F-127 vs pure buffer” value ([2]; buffer pH 7.4) was 2.35 fold. For the same compound, the “Papp in 20% EtOH + 1.5% F-127 lower than in buffer pH 7.4 + 1.5% F-127” value ([2]; pH 7.4) was 5.1 fold, the “Papp in 20% EtOH + 1.5% F-127 lower than in buffer pH 7.4 +20% EtOH” value ([2]; pH 7.4) was 10.8 fold and the “Papp in 20% EtOH + 1.5% F-127 lower than in pure buffer pH 7.4” value ([2]; pH 7.4) was 9.1 fold. For the same compound, the “Solid phase after dissolution (PXRD)” value ([3]; acidic buffer (pH 2.0)) was “transformed into the apparently more stable hydrochloride monohydrate” and the “Solid phase after dissolution (PXRD)” value ([3]; all the systems with buffer pH 7.4) was “No transformations”.
